Results taken from patent publication US20220249616A1, “Osteocrin, Lebetin or ANP for Destroying Bacterial Biofilms” (priority 2019, published 2022).
Read-outs that look alike come from different tables or passages of the source.

Tests used:
[1] = system: preformed biofilm of P. aeruginosa PA14; experiment: microbe, parasite or virus in culture; settings: for % Inhibition (30 min) / Biovolume (30 min): 30 min exposure; for Biovolume (30 min): non-treated 22.19
Method: (§1) Briefly, from an 18 h pre-culture, a bacterial suspension at OD600=0.08 prepared in sterile physiological saline solution was injected into each channel of the flow chamber. The bacteria were left for 2 h at 37° C. under static conditions (no flow) so that they adhered to the glass slide. Study of biofilm formation was then conducted under a flow of LB medium (2.5 ml/h) for 24 h at 37° C.
[…] Treatment of the preformed biofilm was conducted for 2 h at 37° C. under static conditions.
(§2) Treatment of the preformed biofilm was conducted for 2 h at 37° C. under static conditions.
To test the membrane integrity of the bacteria, a mixture of 5 μM SYTO 9 Green and 0.3 μM propidium iodide (PI) was used (Live/Dead BacLight Bacterial Viability Kit, Invitrogen).
as §2, §2, §2, §2
Treatment of the biofilm was conducted for 2 h at 37° C. under static conditions. […] Next, 300 μl of tobramycin (50 μg/ml) or 300 μl of milliQ sterile water (control conditions) were injected into the two channels of the flow chamber pre-exposed to ANP. The second treatment of the preformed biofilm was again conducted for 2 h at 37° C. under static conditions.

P. aeruginosa P14 = experiment: Growth of P. aeruginosa in liquid medium in the presence of ANP; format: cell-based, Pseudomonas aeruginosa; settings: ANP at 1 μM and 0.1 μM
Method: The bacterial strains were cultured at 37° C. in Luria Bertani medium (LB) under agitation.
To determine a potential direct effect of ANP on the growth of P. aeruginosa, the inventors studied the impact of ANP at 1 μM and 0.1 μM on the growth of P. aeruginosa P14 in a liquid medium.

[2] = system: A549 human pulmonary epithelial cells infected with P. aeruginosa PA14; experiment: LDH release by A549 cells infected with P. aeruginosa PA14 pre-treated with ANP (bacterial cytotoxicity); format: cell-based; settings: for % LDH (dead cells): 6 h, MOI 10, PA14 non-treated 56.4 ± 5.5
Method: The line of human pulmonary epithelial cells of type II A549 (ATCC-CCL185TM, ATCC Manassas, Va.) was placed in culture at 37° C. under 5% CO2 atmosphere in DMEM medium (Lonza) supplemented with 10% foetal calf serum (Lonza) and 1% penicillin and streptomycin (Penistrep, Lonza). Under routine cell culture, the cells were seeded in a 25 ml flask and used at 80% confluence.
For cytotoxicity tests, the cells were seeded in 24-well plates to a final density of 3×10^5 cells per well and cultured 48 h before use. For a minimum time of 24 h before the infection tests, the cells were deprived of antibiotics and foetal calf serum through the addition of a medium without fresh serum.
The amount of LDH released by the eukaryote cells in the presence of bacteria, whether or not exposed to ANP (concentration of 1 μM at 10 nM), was determined using the Cytotox 96 enzymatic test (Promega, Charbonnières, France). The A549 cells were incubated for 6 h on a control (without treatment) or with P. aeruginosa PA14 (pre-treated with ANP) with a multiplicity of infection of 10. A lysis buffer consisting of Triton X-100 solution (9% in water), was employed to determine the maximum LDH potentially released by the A549 cells under the experimental conditions (100% LDH release). A level of background noise was determined using the culture medium alone and defined as 0% LDH release, to exclude contribution by the culture medium. Percentage LDH release in the cell population was then calculated with the equation: […]

[3] = system: P. aeruginosa biofilm in formation; experiment: Formation of the P. aeruginosa biofilm under dynamic conditions; format: cell-based, Pseudomonas aeruginosa; settings: ANP 0.1 μM
Method: After 3 h pre-culture in LB medium at 37° C., P. aeruginosa was inoculated at OD600=0.08 in LB medium and sub-cultured for 2 h.
The ANP (Calbiochem Merck) was added 2 h after the start of culture, a time corresponding to the middle of the exponential growth phase of the bacteria. Final bacterial density and absence of contamination were controlled by seeding.
as §1, with “The biofilms were formed under dynamic conditions at 37° C. in a 3-channel flow chamber as described in Bazire et al. (2010) J. Bacteriol. 192:3001-3010. Briefly,” for “Briefly,”

[4] = molecular target: AmiC sensor of P. aeruginosa (Pseudomonas aeruginosa, UniProt P27017); settings: Rosay et al. (2015); cited from earlier work
P. aeruginosa biofilm = settings: Desriac et al. 2017, 2018; Rosay et al. 2015; cited from earlier work
P. aeruginosa = settings: observed previously; by activating bacterial quorum-sensing systems; cited from earlier work
[5] = Pseudomonas aeruginosa, PA14, 2 h

Sequence of AmiC sensor of P. aeruginosa (P27017 whole entry): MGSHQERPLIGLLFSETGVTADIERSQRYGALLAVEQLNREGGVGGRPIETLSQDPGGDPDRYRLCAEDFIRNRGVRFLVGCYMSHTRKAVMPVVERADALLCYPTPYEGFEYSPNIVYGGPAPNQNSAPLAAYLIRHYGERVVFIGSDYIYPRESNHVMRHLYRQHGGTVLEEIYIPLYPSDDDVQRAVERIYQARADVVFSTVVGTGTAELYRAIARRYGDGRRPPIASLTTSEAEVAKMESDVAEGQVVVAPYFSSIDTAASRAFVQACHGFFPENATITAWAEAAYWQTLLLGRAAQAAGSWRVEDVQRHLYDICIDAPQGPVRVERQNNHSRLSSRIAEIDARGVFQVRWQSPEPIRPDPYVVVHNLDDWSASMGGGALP

polymyxin B [reference compound]
% Inhibition ([1]; Polymyxin B 4 μg/ml alone, 2 h): 59.3%
Biovolume ([1]; Polymyxin B 4 μg/ml alone, 2 h, non-treated 18.2): 7.4 μm^3/μm^2

O=C(O)c1cn(C2CC2)c2cc(N3CCNCC3)c(F)cc2c1=O [Ciprofloxacin, ciprofloxacin, reference compound]
inhibition at 0.01 µg/mL [1, 5]: 90%
inhibition at 0.04 µg/mL [1, 5]: 99.3%

CC[C@H](C)[C@@H]1NC(=O)[C@H](CCCNC(=N)N)NC(=O)[C@H](CC(=O)O)NC(=O)[C@H](CCSC)NC(=O)[C@H](CCCNC(=N)N)NC(=O)CNC(=O)CNC(=O)[C@H](Cc2ccccc2)NC(=O)[C@@H](NC(=O)[C@H](CO)NC(=O)[C@H](CO)NC(=O)[C@H](CCCNC(=N)N)NC(=O)[C@H](CCCNC(=N)N)NC(=O)[C@H](CC(C)C)NC(=O)[C@@H](N)CO)CSSC[C@@H](C(=O)N[C@@H](CC(N)=O)C(=O)N[C@@H](CO)C(=O)N[C@@H](Cc2ccccc2)C(=O)N[C@@H](CCCNC(=N)N)C(=O)N[C@@H](Cc2ccc(O)cc2)C(=O)O)NC(=O)CNC(=O)[C@H](CC(C)C)NC(=O)CNC(=O)[C@H](CO)NC(=O)[C@H](CCC(N)=O)NC(=O)[C@H](C)NC(=O)CNC1=O [ANP, Atrial Natriuretic Peptide]
% Inhibition (30 min) ([1]; ANP 0.3 ng/ml): 57.5 (*) %
Biovolume (30 min) ([1]; ANP 0.3 ng/ml): 9.5 μm^3/μm^2
% Inhibition (2 h) ([1]; ANP 0.3 ng/ml, 2 h exposure): 45.1 (**) %
Biovolume (2 h) ([1]; ANP 0.3 ng/ml, 2 h exposure, non-treated 21.1 (mean of all controls)): 10.6 μm^3/μm^2
% Inhibition (30 min) ([1]; ANP 3 ng/ml): 59.1 (*) %
Biovolume (30 min) ([1]; ANP 3 ng/ml): 8.8 μm^3/μm^2
% Inhibition (2 h) ([1]; ANP 3 ng/ml, 2 h exposure): 65.9 (***) %
Biovolume (2 h) ([1]; ANP 3 ng/ml, 2 h exposure, non-treated 21.1 (mean of all controls)): 6.3 μm^3/μm^2
% Inhibition (30 min) ([1]; ANP 30 ng/ml): 69.0 (*) %
Biovolume (30 min) ([1]; ANP 30 ng/ml): 6.7 μm^3/μm^2
% Inhibition (2 h) ([1]; ANP 30 ng/ml, 2 h exposure): 72.5 (***) %
Biovolume (2 h) ([1]; ANP 30 ng/ml, 2 h exposure, non-treated 21.1 (mean of all controls)): 4.4 μm^3/μm^2
biofilm structure dispersed ([1]; ANP 0.1 μM for 2 h, even 30 minutes): about 80%
thickness of the biofilm ([1]; ANP 0.1 μM, 2 h exposure): major reduction
bacterial biomass reduced compared with control ([1]; ANP 0.1 μM, 2 hours exposure (P<0.001)): 81.4±4.1%
% Inhibition (30 min) ([1]; ANP 300 ng/ml (0.1 μM)): 80.2 (*) %
Biovolume (30 min) ([1]; ANP 300 ng/ml (0.1 μM)): 4.4 μm^3/μm^2
% Inhibition (2 h) ([1]; ANP 300 ng/ml (0.1 μM), 2 h exposure): 81.4 (***) %
Biovolume (2 h) ([1]; ANP 300 ng/ml (0.1 μM), 2 h exposure, non-treated 21.1 (mean of all controls)): 4.9 μm^3/μm^2
% Inhibition ([1]; ANP 10^−8 M alone, 2 h (colistin experiment)): 73.5%
% Inhibition ([1]; ANP 10^−8 M alone, 2 h (imipenem experiment)): 75.4%
% Inhibition ([1]; ANP 10^−8 M alone, 2 h (polymyxin B experiment)): 75.3%
Biovolume ([1]; ANP 10^−8 M alone, 2 h, non-treated 18.2 (polymyxin B experiment)): 4.5 μm^3/μm^2
Biovolume ([1]; ANP 10^−8 M alone, 2 h, non-treated 18.5 (colistin experiment)): 4.9 μm^3/μm^2
Biovolume ([1]; ANP 10^−8 M alone, 2 h, non-treated 28.0 (imipenem experiment)): 6.9 μm^3/μm^2
% Inhibition ([1]; ANP 10^−9 M 2 h, then sterile water 2 h (sequential experiment)): 68.7%
Biovolume ([1]; ANP 10^−9 M 2 h, then sterile water 2 h (sequential experiment), non-treated 13.1): 4.1 μm^3/μm^2
% Inhibition ([1]; ANP 10^−9 M alone, 2 h (table with tobramycin 10 μg/ml)): 66.4%
% Inhibition ([1]; ANP 10^−9 M alone, 2 h (table with tobramycin 50 μg/ml)): 66.4%
Biovolume ([1]; ANP 10^−9 M alone, 2 h, non-treated 13.5 (table with tobramycin 10 μg/ml)): 4.53 μm^3/μm^2
Biovolume ([1]; ANP 10^−9 M alone, 2 h, non-treated 13.5 (table with tobramycin 50 μg/ml)): 4.53 μm^3/μm^2
remaining bacterial biomass reduced compared with control ([1]; ANP (0.1 μM per Example 1), 30 minutes exposure (P<0.05)): 80.2±2.0%
pre-established P. aeruginosa biofilms destroyed ([1]; low dose (on and after 0.1 nM), as soon as 30 min after administration): about 80%
dispersion of established biofilm (observation) ([1]; on and after the lowest concentration of 0.3 ng/ml, as soon as after exposure for 30 min): strongly dispersed
effect on growth of P. aeruginosa (P. aeruginosa P14): None of the tested ANP concentrations affected bacterial growth
impact on the cytotoxic activity of P. aeruginosa in pulmonary cells ([2]; ANP 1 μM to 10 nM): no impact
% LDH (dead cells) ([2]; PA14 + ANP 10^−6 M): 58.9 ± 5.8%
% LDH (dead cells) ([2]; PA14 + ANP 10^−7 M): 53.5 ± 5.3%
% LDH (dead cells) ([2]; PA14 + ANP 10^−8 M): 54.5 ± 5.5%
formation of a P. aeruginosa biofilm [3]: fully prevents
binding onto the AmiC sensor of P. aeruginosa [4]: strong affinity
formation of P. aeruginosa biofilm (P. aeruginosa biofilm): prevent the formation

lebetin 1β [Lebetin L1 beta]
dispersion of established biofilm (observation) ([1]; 10^−8 M, 2 h exposure): strongly dispersed
% Inhibition (2 h) ([1]; Lebetin L1 beta 10^−8 M, 2 h exposure): 67.0%
Biovolume (2 h) ([1]; Lebetin L1 beta 10^−8 M, 2 h exposure, non-treated 21.0): 6.9 μm^3/μm^2

C[C@@H](O)[C@H]1C(=O)N2C(C(=O)O)=C(SCCN=CN)C[C@H]12 [Imipenem, imipenem, reference compound]
Biovolume [1]: 7.0 μm^3/μm^2
inhibition at 0.5 µg/mL [1, 5]: 75%

lebetin 2α (GDNKPPKKGPPNGCFGHKIDRIGSHSGLGCNKVDDNKG) [Lebetin L2 alpha]
dispersion of established biofilm (observation) ([1]; 10^−8 M, 2 h exposure): strongly and significantly dispersed
% Inhibition (2 h) ([1]; Lebetin L2 alpha 10^−8 M, 2 h exposure): 70.2 (***) %
Biovolume (2 h) ([1]; Lebetin L2 alpha 10^−8 M, 2 h exposure, non-treated 29.7): 8.9 μm^3/μm^2
binding onto the AmiC sensor of P. aeruginosa [4]: strong affinity

Brain Natriuretic Peptide [BNP]
formation of P. aeruginosa biofilm (P. aeruginosa biofilm): prevent the formation

NC[C@H]1O[C@H](O[C@H]2[C@H](O)[C@@H](O[C@H]3O[C@H](CO)[C@@H](O)[C@H](N)[C@H]3O)[C@H](N)C[C@@H]2N)[C@H](N)C[C@@H]1O [Tobramycin, tobramycin, reference compound]
inhibition at 10 µg/mL [1, 5]: 78.5%
inhibition at 50 µg/mL [1, 5]: 75.9%
Biovolume ([1]; Tobramycin 10 μg/ml alone, 2 h, non-treated 13.5): 2.9 μm^3/μm^2
Biovolume ([1]; Tobramycin 50 μg/ml alone, 2 h, non-treated 13.5): 3.26 μm^3/μm^2

C-type Natriuretic Peptide [CNP]
formation of P. aeruginosa biofilm (P. aeruginosa biofilm): prevent the formation
bacterial virulence and cytotoxicity (P. aeruginosa): slightly increased

osteocrin
dispersion of established biofilm (observation) ([1]; 10^−8 M, 2 h exposure): strongly and significantly dispersed
% Inhibition (2 h) ([1]; Osteocrin 10^−8 M, 2 h exposure): 59.4 (***) %
Biovolume (2 h) ([1]; Osteocrin 10^−8 M, 2 h exposure, non-treated 29.8): 12.1 μm^3/μm^2
binding onto the AmiC sensor of P. aeruginosa [4]: strong affinity

colistin [reference compound]
% Inhibition ([1]; Colistin 1 μg/ml alone, 2 h): 88.6%
Biovolume ([1]; Colistin 1 μg/ml alone, 2 h, non-treated 18.5): 2.1 μm^3/μm^2
